Measurements published in PMC3326631, “Synthesis and biological evaluation of nojirimycin- and pyrrolidine-based trehalase inhibitors” (Beilstein Journal of Organic Chemistry, 2012).
Entries after “also recorded” stand apart in the source; their conditions may differ. Read-outs that look alike come from different tables or passages of the source. Blank lines part the entries; values can stand above or below the compound they belong to.

How the values were obtained:
[1] = target: C. riparius trehalase (Chironomus riparius, UniProt J7EJ73); experiment: Trehalase inhibition, coupled assay with glucose-6-phosphate dehydrogenase and hexokinase (insect enzyme); format: biochemical; conditions: for selectivity between insect and porcine trehalase (times more active): C. riparius trehalase versus porcine kidney trehalase, from IC50 values; for inhibitory activity against insect trehalase (in words): screening at fixed concentration of 1 mM; for IC50 C. riparius trehalase: trehalose fixed close to Km (0.5 mM), 30 °C, mean ± SE of three independent experiments
C. riparius trehalase, sequence (J7EJ73 entry or part of it): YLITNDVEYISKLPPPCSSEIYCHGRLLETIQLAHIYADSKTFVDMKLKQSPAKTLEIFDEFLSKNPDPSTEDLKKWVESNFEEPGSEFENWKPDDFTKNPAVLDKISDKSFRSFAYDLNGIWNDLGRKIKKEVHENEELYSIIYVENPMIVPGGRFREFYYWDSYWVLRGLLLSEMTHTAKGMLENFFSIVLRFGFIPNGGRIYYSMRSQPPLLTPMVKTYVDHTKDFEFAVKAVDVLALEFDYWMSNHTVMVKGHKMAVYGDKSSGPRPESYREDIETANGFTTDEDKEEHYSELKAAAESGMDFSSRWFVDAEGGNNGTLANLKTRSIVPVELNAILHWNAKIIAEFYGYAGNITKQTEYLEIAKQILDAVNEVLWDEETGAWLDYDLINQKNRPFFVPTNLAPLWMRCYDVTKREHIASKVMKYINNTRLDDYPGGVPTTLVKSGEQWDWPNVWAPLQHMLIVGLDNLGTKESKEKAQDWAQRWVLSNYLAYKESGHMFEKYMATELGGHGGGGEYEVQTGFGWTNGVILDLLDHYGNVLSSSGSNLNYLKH
Description: (§1) Trehalase activity was measured through a coupled assay with glucose-6-phosphate dehydrogenase and hexokinase according to Wegener et al.. To examine the potential of each compound as a trehalase inhibitor, screening assays of potential inhibitors were carried out at a fixed concentration of 1 mM. […] Initial rates as a function of inhibitor concentration were fitted to the following equation: […]
(§2) where νi and ν are the initial rate in the presence and in the absence of the inhibitor, respectively, [I] is the inhibitor concentration, IC50 is the inhibitor concentration producing half-maximal inhibition, and n is the Hill coefficient.
(§3) All enzyme assays were performed in triplicate at 30 °C by using sample volumes varying from 5 to 20 µL in 1 mL test tubes and using a Cary3 UV–vis spectrophotometer. Enzyme activities were analyzed by Cary Win UV application software for Windows XP. The specific activity (U mg^−1) was expressed as µmol min^−1(mg protein)^−1. Values were expressed as mean ± SE of replicated.

[2] = target: T1, porcine kidney trehalase (Sus scrofa, UniProt I3LIR5); conditions: mean ± SE, cited from earlier work
T1 construct: trehalases from porcine kidney and insects have different recognition requirements; from tissue; host or cells: porcine kidney
T1 sequence (I3LIR5 24-583): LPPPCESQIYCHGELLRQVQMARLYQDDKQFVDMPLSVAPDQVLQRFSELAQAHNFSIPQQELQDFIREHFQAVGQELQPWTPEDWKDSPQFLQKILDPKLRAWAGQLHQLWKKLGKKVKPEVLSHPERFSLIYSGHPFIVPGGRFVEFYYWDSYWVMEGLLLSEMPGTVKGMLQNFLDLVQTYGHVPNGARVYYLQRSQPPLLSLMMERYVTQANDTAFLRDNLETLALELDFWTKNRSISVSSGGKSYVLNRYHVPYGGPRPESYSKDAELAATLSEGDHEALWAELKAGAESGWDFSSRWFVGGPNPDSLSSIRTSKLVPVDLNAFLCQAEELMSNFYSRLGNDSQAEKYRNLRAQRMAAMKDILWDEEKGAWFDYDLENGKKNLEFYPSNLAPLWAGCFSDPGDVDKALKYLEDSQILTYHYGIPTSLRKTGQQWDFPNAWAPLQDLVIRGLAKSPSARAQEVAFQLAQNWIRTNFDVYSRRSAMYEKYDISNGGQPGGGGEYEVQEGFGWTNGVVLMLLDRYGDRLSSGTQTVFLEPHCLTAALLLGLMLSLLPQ

[3] = target: T1, porcine kidney trehalase; experiment: Trehalase inhibition, coupled assay with glucose-6-phosphate dehydrogenase and hexokinase (porcine enzyme); format: biochemical; conditions: for inhibitory activity against porcine trehalase (in words): screening at fixed concentration of 1 mM; for IC50 porcine kidney trehalase / IC50: trehalose fixed close to Km (2.5 mM), 30 °C, mean ± SE of three independent experiments
Description: Synthesized compounds 10, 12–14, 16, 17 and 19–21 were tested for their inhibitory activity against insect (C. riparius) and porcine kidney trehalase.
as §1, with “Even if the synthesis unexpectedly afforded a structurally quite heterogeneous set of compounds, biological data give some hints toward the design of selective inhibitors of trehalases of different origin. Trehalase” for “Trehalase”
as §2, §3

SMILES: OC[C@H]1NC[C@H](O)[C@@H](O)[C@@H]1O [Compound 7, 1-deoxynojirimycin, reference compound]
- selectivity between insect and porcine trehalase (times more active) [1]: only twice as active on insect trehalase
- IC50 [2]: 5.96 ± 0.62 µM

SMILES: CC[C@@H]1[C@H](O)[C@@H](O)[C@H](O)[C@@H](CO)N1C(=O)NCc1ccccc1 [Compound 8]
- IC50 ([2]; trehalose fixed at Km): 100 ± 8.82 µM

SMILES: CCC[C@@H]1[C@H](O)[C@@H](O)[C@H](O)[C@@H](CO)N1C(=O)NCc1ccccc1 [Compound 10]
- inhibitory activity against insect trehalase (in words) [1]: inhibitors only of insect trehalase
- inhibitory activity against porcine trehalase (in words) [3]: no activity
- IC50 porcine kidney trehalase [3]: no inhibition

SMILES: CCC[C@@H]1[C@@H](O)[C@H](O)[C@@H](CO)N1C(N)=O [Compound 16]
- inhibitory activity against insect trehalase (in words) [1]: inhibitors only of insect trehalase
- inhibitory activity against porcine trehalase (in words) [3]: no activity
- IC50 porcine kidney trehalase [3]: no inhibition

SMILES: CCCCCCCCN1C[C@@H](O)[C@H](O)[C@H]1CO [Compound 20]
- inhibitory activity against porcine trehalase (in words) [3]: active
- IC50 [3]: 537 ± 80 µM

Further lines, with some results ahead:

- selectivity between insect and porcine trehalase (times more active) [1]: twice more active on porcine trehalase
SMILES: OC[C@H]1NC[C@@H](O)[C@@H]1O [Compound 9, DAB-1, reference compound]
- IC50 ([2]; trehalose fixed at Km): 10.6 ± 2.42 µM

- selectivity between insect and porcine trehalase (times more active) [1]: five times
- inhibitory activity against porcine trehalase (in words) [3]: active
- IC50 [3]: 154 ± 17 µM
SMILES: NC(=O)N1C[C@H](O)[C@@H](O)[C@H](O)[C@H]1CO [Compound 12]

- inhibitory activity against porcine trehalase (in words) [3]: active
- IC50 [3]: 109 ± 38 µM
SMILES: CCC[C@H]1N[C@H](CO)[C@@H](O)[C@H](O)[C@H]1O [Compound 13]
- selectivity between insect and porcine trehalase (times more active) [1]: around ten times more active towards insect trehalase; also recorded: ten-fold selectivity towards insect trehalase

- inhibitory activity against insect trehalase (in words) [1]: inhibitors only of insect trehalase
- inhibitory activity against porcine trehalase (in words) [3]: no activity
- IC50 porcine kidney trehalase [3]: no inhibition
SMILES: CCC[C@H]1N[C@H](CO)[C@@H](O)[C@@H]1O [Compound 14]

- inhibitory activity against insect trehalase (in words) [1]: do not possess any activity
- IC50 C. riparius trehalase [1]: no inhibition
- inhibitory activity against porcine trehalase (in words) [3]: do not possess any activity
- IC50 porcine kidney trehalase [3]: no inhibition
SMILES: CCC[C@@H]1N[C@H](CO)[C@@H](O)[C@H]1O [Compound 17]

- inhibitory activity against insect trehalase (in words) [1]: do not possess any activity
- IC50 C. riparius trehalase [1]: no inhibition
- inhibitory activity against porcine trehalase (in words) [3]: do not possess any activity
- IC50 porcine kidney trehalase [3]: no inhibition
SMILES: CCC[C@H]1[C@H](O)[C@H](O)[C@@H](CO)N1C(N)=O [Compound 19]

- IC50 C. riparius trehalase [1]: no inhibition
- IC50 porcine kidney trehalase [3]: no inhibition
SMILES: CCCCCCCC[C@H]1N[C@H](CO)[C@@H](O)[C@@H]1O [Compound 21]
